The conditions of series [1]: background statement on known substance, cited from earlier work.
The nature of series [2]: Solubility in water (descriptive). To be noted: physical properties stated in detailed description.
Series [3] can be described thus: Tap density of milled dextromethorphan tannate powders. It is filed as physicochemical. To be noted: dried to moisture level (K.F.) of 5%, milled to particle size of about 100 mesh.

Where a name gives a salt, the structure may show the parent alone. Read-outs that look alike come from different tables or passages of the source.

On to `COc1ccc2c(c1)[C@]13CCCC[C@@H]1[C@H](C2)N(C)CC3` [dextromethorphan free base, 3-methoxy-17-methyl-9α, 13α, 14α-morphinan], for which the solubility in water entry in series [1] and in series [2] was “insoluble” in each case.
As to `COc1ccc2c(c1)[C@]13CCCC[C@@H]1[C@H](C2)N(C)CC3` [hydrobromide monohydrate salt, dextromethorphan hydrobromide monohydrate], in series [1] (hydrobromide monohydrate), the solubility in water entry is “soluble”.
With `O=C(OC[C@H]1O[C@@H](OC(=O)c2cc(O)c(O)c(OC(=O)c3cc(O)c(O)c(O)c3)c2)[C@H](OC(=O)c2cc(O)c(O)c(OC(=O)c3cc(O)c(O)c(O)c3)c2)[C@@H](OC(=O)c2cc(O)c(O)c(OC(=O)c3cc(O)c(O)c(O)c3)c2)[C@@H]1OC(=O)c1cc(O)c(O)c(OC(=O)c2cc(O)c(O)c(O)c2)c1)c1cc(O)c(O)c(OC(=O)c2cc(O)c(O)c(O)c2)c1` [tannic acid], the solubility in water result in series [1] was “highly soluble”.
For the compound “dextromethorphan tannate [Commercially available D-M Tannate]”, the “Tap Density” value in series [3] was determined as 0.313 g/cc.
As to “dextromethorphan tannate [D-M Tannate of the invention]”, the “Tap Density” value in series [3] is reported as 0.723 g/cc.
Consider “dextromethorphan tannate [D-M Tannate synthesized by IPA route (Example 5)]”, for which the “Tap Density” value in series [3] is recorded as 0.321 g/cc.
